Data taken from patent publication US20220370453A1 (Storm Therapeutics Ltd, priority 2019, published 2022).
pIC50: −log10 of the molar value.

How the values were obtained:
BCDIN3D [1] = biological target: T1, BCDIN3D (Homo sapiens, UniProt Q7Z5W3); experiment: BCDIN3D IC50 RFMS (RapidFire) assay with mini-helix; format: biochemical; details: mini-helix substrate 0.2 μM, SAM 6 μM, 25 nM enzyme
T1 sequence (Q7Z5W3 1-292): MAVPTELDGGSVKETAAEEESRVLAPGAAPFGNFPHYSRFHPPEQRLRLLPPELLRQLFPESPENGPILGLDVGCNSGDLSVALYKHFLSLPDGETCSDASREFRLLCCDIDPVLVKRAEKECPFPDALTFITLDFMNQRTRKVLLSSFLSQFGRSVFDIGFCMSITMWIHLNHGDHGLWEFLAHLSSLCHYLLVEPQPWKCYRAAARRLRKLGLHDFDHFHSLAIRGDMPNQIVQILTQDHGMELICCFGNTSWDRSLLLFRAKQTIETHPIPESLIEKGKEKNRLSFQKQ
How it was run: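 SAH formation was measured by RapidFire mass spectrometry with D4- and 13C10-SAH internal standards after TCA quench. Substrates 6 μM SAM and 0.2 μM mini-helix reacted 1 h at 37 °C with 25 nM enzyme, which had been preincubated 10 min with compound (1% DMSO) in Tris pH 8.0 buffer with DTT, EDTA, BSA.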

BCDIN3D [2] = biological target: T1, BCDIN3D; experiment: BCDIN3D InCellPulse thermal stability assay in transfected A549 cells; format: cell-based; details: transiently transfected A549 cells, heat shock 58° C. 15 min
How it was run: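 Thermal stabilisation read-out: after a 15 min 58 °C heat shock, ePL-tagged BCDIN3D in transiently transfected A549 cells (1500/well) was quantified by enzyme-fragment complementation luminescence. Compounds were pre-incubated with cells 1 h at 37 °C, 0.6% DMSO final.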

Structure (SMILES) | pIC50 (BCDIN3D [1]) | pIC50 (BCDIN3D [2])
Cn1ncc2c(NC3CC4(CC(O)C4)C3)nc(NC[C@H](N)c3ccccc3)nc21 (stereo partly drawn) [Compound 4.124, 6-[(6-{[(2R)-2-amino-2-phenylethyl]amino}-1-methyl-1H-pyrazolo[3,4-d]pyrimidin-4-yl)amino]spiro[3.3]heptan-2-ol] | 6.54 | 6.24
Cn1ncc2c(NC3CCC(C(F)(F)F)CC3)nc(NC[C@H](N)c3ccccc3)nc21 (stereo partly drawn) [Compound 4.125, N6-[(2R)-2-amino-2-phenylethyl]-1-methyl-N4-[4-(trifluoromethyl)cyclohexyl]-1H-pyrazolo[3,4-d]pyrimidine-4,6-diamine] | 6.35 | 5.64
Cn1ncc2c(NC3(C)CCOCC3)nc(NC[C@H](N)c3ccccc3)nc21 [Compound 4.127, N6-[(2R)-2-amino-2-phenylethyl]-1-methyl-N4-(4-methyloxan-4-yl)-1H-pyrazolo[3,4-d]pyrimidine-4,6-diamine] | 5.17 | 5.65
CC(C)Cc1nc(NCC(N)c2ccccc2)nc2c1cnn2C (centres unmarked) [Compound 4.130, N2-[1-methyl-4-(2-methylpropyl)-1H-pyrazolo[3,4-d]pyrimidin-6-yl]-1-phenylethane-1,2-diamine] | 5.22 | 4.95
Cc1ccc(CNc2nc(NCC(N)c3ccccn3)nc3c2cnn3C)cc1Cl (centres unmarked) [Compound 5.02] | 6.66 | 6.03
Cn1ncc2c(Nc3ccc(C(F)(F)F)cc3)nc(NCC(N)c3ccccn3)nc21 (centres unmarked) [Compound 5.03, 6-N-(2-amino-2-pyridin-2-ylethyl)-1-methyl-4-N-[4-(trifluoromethyl)phenyl]pyrazolo[3,4-d]pyrimidine-4,6-diamine] | 7.05 | 6.36
CNc1nc(NCC(N)c2cccc(C#N)c2)nc2c1cnn2C (centres unmarked) [Compound 5.04, 3-[1-Amino-2-[[1-methyl-4-(methylamino)pyrazolo[3,4-d]pyrimidin-6-yl]amino]ethyl]benzonitrile] | 6.16 | 5.44

Further lines, results first:

pIC50 (BCDIN3D [1]) | pIC50 (BCDIN3D [2]) | Structure (SMILES)
5.19 | 5.32 | CC(C)(C)Nc1nc(NC[C@H](N)c2ccccc2)nc2c1cnn2C1CC1 [Compound 4.121, N6-[(2R)-2-amino-2-phenyl-ethyl]-N4-tert-butyl-1-cyclopropyl-pyrazolo[3,4-d]pyrimidine-4,6-diamine]
6.92 | 6.66 | CC(C)[C@@H](C)Nc1nc(NC[C@H](N)c2ccccc2)nc2c1cnn2C [Compound 4.122, N6-[(2R)-2-amino-2-phenylethyl]-1-methyl-N4-[(2R)-3-methylbutan-2-yl]-1H-pyrazolo[3,4-d]pyrimidine-4,6-diamine]
5.85 | 5.45 | CC(C)[C@H](C)Nc1nc(NC[C@H](N)c2ccccc2)nc2c1cnn2C [Compound 4.123, N6-[(2R)-2-amino-2-phenylethyl]-1-methyl-N4-[(2S)-3-methylbutan-2-yl]-1H-pyrazolo[3,4-d]pyrimidine-4,6-diamine]
6.35 | 6.24 | Cn1ncc2c(N[C@H]3CCC(F)(F)C3)nc(NC[C@H](N)c3ccccc3)nc21 [Compound 4.126, N6-[(2R)-2-amino-2-phenylethyl]-N4-[(1S)-3,3-difluorocyclopentyl]-1-methyl-1H-pyrazolo[3,4-d]pyrimidine-4,6-diamine]
6.00 | 5.89 | Cc1nn(C)c2nc(NC[C@H](N)c3ccccc3)nc(NC(C)(C)C)c12 [Compound 4.128, N6-[(2R)-2-amino-2-phenylethyl]-N4-tert-butyl-1,3-dimethyl-1H-pyrazolo[3,4-d]pyrimidine-4,6-diamine]
6.74 | 6.54 | C[C@@H](Nc1nc(NC[C@H](N)c2ccccc2)nc2c1cnn2C)C1CC1 [Compound 4.129, N6-[(2R)-2-amino-2-phenylethyl]-N4-[(1R)-1-cyclopropylethyl]-1-methyl-1H-pyrazolo[3,4-d]pyrimidine-4,6-diamine]
